Article PMC8617031, “Development of a BCL-xL and BCL-2 dual degrader with improved anti-leukemic activity,” (Nature Communications, 2021)
Several values for one entry are separate records, joined by “and”; a condition that tells them apart may be missing. Equal entries are not always repeated.

How the values were obtained:
BCL-xL = target: T1, BCL-xL (Homo sapiens, UniProt Q07817); assay: BCL-xL degradation by immunoblot in 293T cells; assay type: cell-based; conditions: for normalized BCL-xL protein content at 1 µM: HEK-293T, 293T, 1 μM 753b, Fig. 3d
T1 construct: endogenous in cells
Description: (§1) The DC50 and Dmax were calculated using Prism based on the ImageJ-quantified western blots in Supplementary Fig. 4. c, d AlphaLISA assay to determine the formation of BCL-xL/PROTAC/VHL-ELOC-ELOB (VCB) (c) or BCL-2/PROTAC/VCB (d) ternary complex in a cell-free condition. Data represent the mean of a single experiment with 2 technical replicates. Similar results were obtained in one more independent experiment. e, f NanoBRET assays evaluating intracellular BCL-xL/PROTAC/VCB (e) or BCL-2/PROTAC/VCB (f) ternary complex formation. […] Data are expressed as mean ± s.e.m. of three biological replicates. Source data are provided as a Source data file.
(§2) Representative immunoblots are shown in (a–d) and β-actin was used as a loading control in all immunoblot analyses. The normalized protein content in the immunoblots is presented as mean values ± s.e.m. (n = 3 biologically independent experiments) in the bar graph (bottom panel). e, f The formation of BCL-xL/PROTAC/VCB (e) and BCL-2/PROTAC/VCB (f) ternary complexes in a cell-free condition was determined by AlphaLISA assay. Data represent the mean of a single experiment with 2 technical replicates. […] Source data are provided as a Source data file.
(§3) Cells were collected, washed once with ice-cold phosphate-buffered saline, pH 7.2 (PBS, cat. no. 20012027; Thermo Fisher Scientific) and lysed in RIPA lysis buffer (Cat. No. BP-115DG, Boston Bio Products, Ashland, MA, USA) supplemented with protease and phosphatase inhibitor cocktails (Cat. No. PPC1010, Sigma-Aldrich, St. Louis, MO, USA) through sonication. The samples were centrifuged at 14,000 r.p.m. for 5 min and the supernatants were transferred into a new tube. The protein concentration in the supernatants was determined using the Pierce BCA protein Assay kit (cat. no. 23225, Thermo Fisher Scientific). The protein concentration was normalized, and the samples were reduced in 4× Laemmli’s SDS-sample buffer (cat. no. BP-110R, Boston Bio Products) and denatured at 95 °C for 5 min. An equal amount of protein samples (20–40 μg per lane) were resolved using precast 4–20% Tris-glycine gels (Mini-PROTEAN TGX, cat. no. 456–1094, Bio-Rad), and resolved proteins were transferred onto 0.2-µm pore size polyvinylidene difluoride (PVDF) blotting membranes (cat. no. LC2002, Thermo Fisher Scientific) using mini trans-blot electrophoretic transfer cell (Bio-Rad). The membranes were blocked with non-fat dry milk (5% wt/vol) in 1× Tris-buffered saline-Tween-20 (TBST, cat. no. J77500, Affymetrix) for 1 h at room temperature, and were subsequently probed with primary antibodies at a predetermined optimal concentration in non-fat dry milk (5% wt/vol in TBST) overnight at 4 °C. The membranes were washed three times (5 min each) in TBST and then incubated with horse radish peroxidase (HRP)-conjugated secondary antibodies for 1 h at room temperature. Following sufficient washing with TBST, the membranes were exposed with chemiluminescent HRP substrate (cat. no. WBKLS0500, MilliporeSigma), and the signal was detected using the ChemiDoc MP Imaging System (Bio-Rad) and quantified using the ImageJ (v1.53a) software from NIH.

[1] = target: T2, BCL-xL/PROTAC/VHL-ELOC-ELOB (VCB) ternary complex (Homo sapiens, UniProt P40337+Q07817); assay: AlphaLISA ternary complex formation, cell-free, BCL-xL; assay type: binding; conditions: for AlphaLISA signal, BCL-xL/PROTAC/VCB: Fig. 3e raw Alpha reads
T2 construct: pGEX-6P-1-VHL(54-213) (pDL2200) was constructed through Gibson assembly method; made in house; host or cells: bacterial culture (LB broth, IPTG induction)
Description: AlphaLISA assay was used to evaluate the in vitro ternary complex formation between target proteins (BCL-xL or BCL-2), PROTAC and E3 ligase (VCB complex). In each well, 5 nM His-tagged BCL-xL or BCL-2 proteins and 5 nM GST-VCB complex was incubated with varying concentrations of compounds in fourfold serial dilutions, to a final volume of 40 µl in a 96-well PCR plate. After incubation at room temperature for 30 min, 5 µl alpha glutathione-donor beads (Cat. No. 6765300, PerkinElmer) were added to each well (20 µg/ml final concentration) and incubated for another 15 min. Thereafter, 5 µL 6× His-acceptor beads were added to each well (20 µg/ml final concentration) and incubated for an additional 45 min at room temperature. Thereafter, 17 µl of each sample was transferred in adjacent wells of a 384-well proxy plate, and the plate was scanned using the Alpha program on Biotek’s Synergy Neo2 multimode plate reader. The data were expressed as average AlphaLISA signal and plotted against different concentrations of compounds using GraphPad Prism 9 software.

BCL-2 = target: T3, BCL-2 (Homo sapiens, UniProt P10415); assay: BCL-2 degradation by immunoblot in 293T cells; assay type: cell-based; conditions: for normalized BCL-2 protein content at 1 µM: HEK-293T, 293T, 1 μM 753b, Fig. 3d
T3 construct: endogenous in cells
Description: as §1, §2, §3

[2] = compound 50000 nM, 2 technical replicates
[3] = time point 1 (unit inferred), time 0 = 100, 3 replicates

T1 sequence (Q07817 whole entry): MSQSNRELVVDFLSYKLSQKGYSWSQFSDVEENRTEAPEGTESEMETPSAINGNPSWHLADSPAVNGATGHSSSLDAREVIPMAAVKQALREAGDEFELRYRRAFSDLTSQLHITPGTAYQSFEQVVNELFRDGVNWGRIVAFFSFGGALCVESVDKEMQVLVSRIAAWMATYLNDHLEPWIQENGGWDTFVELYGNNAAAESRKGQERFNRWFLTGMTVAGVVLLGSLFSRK
T2 sequence (Q07817 1-212 limits assumed): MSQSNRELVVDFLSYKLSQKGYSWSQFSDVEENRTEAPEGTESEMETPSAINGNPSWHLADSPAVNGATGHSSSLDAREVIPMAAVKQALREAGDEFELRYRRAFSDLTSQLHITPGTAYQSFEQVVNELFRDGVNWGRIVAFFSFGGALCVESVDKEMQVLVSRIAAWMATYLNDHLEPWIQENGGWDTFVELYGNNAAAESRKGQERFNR
T2 sequence (P40337 54-213 limits assumed): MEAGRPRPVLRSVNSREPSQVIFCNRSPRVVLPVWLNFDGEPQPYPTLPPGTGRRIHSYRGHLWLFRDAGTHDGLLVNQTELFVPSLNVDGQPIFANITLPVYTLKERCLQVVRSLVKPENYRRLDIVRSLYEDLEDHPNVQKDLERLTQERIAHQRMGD
T2 sequence (Q15369 17-112 partner limits assumed): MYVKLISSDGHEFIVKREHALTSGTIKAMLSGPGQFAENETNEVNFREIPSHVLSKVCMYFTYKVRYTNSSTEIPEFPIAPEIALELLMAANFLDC
T2 sequence (Q15370 whole entry partner): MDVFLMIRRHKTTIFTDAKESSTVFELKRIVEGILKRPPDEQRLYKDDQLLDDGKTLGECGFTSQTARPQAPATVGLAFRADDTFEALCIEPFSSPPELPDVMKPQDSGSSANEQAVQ
T3 sequence (P10415 whole entry): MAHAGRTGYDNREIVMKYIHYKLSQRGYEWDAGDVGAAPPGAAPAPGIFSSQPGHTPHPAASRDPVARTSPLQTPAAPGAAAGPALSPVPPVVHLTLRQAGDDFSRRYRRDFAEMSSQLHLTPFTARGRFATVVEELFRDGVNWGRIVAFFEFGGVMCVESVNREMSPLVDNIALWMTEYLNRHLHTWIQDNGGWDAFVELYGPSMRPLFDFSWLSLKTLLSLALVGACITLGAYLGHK

Compound	AlphaLISA signal, BCL-xL/PROTAC/VCB ([1]; compound 0.19 nM)	AlphaLISA signal, BCL-xL/PROTAC/VCB ([1]; compound 3.05 nM)	AlphaLISA signal, BCL-xL/PROTAC/VCB ([1]; compound 12.21 nM)	AlphaLISA signal, BCL-xL/PROTAC/VCB ([1]; compound 48.83 nM)	AlphaLISA signal, BCL-xL/PROTAC/VCB ([1]; compound 195.31 nM)	AlphaLISA signal, BCL-xL/PROTAC/VCB ([1]; compound 781.25 nM)	AlphaLISA signal, BCL-xL/PROTAC/VCB ([1]; compound 3125 nM)	AlphaLISA signal, BCL-xL/PROTAC/VCB ([1]; compound 12500 nM)	AlphaLISA signal, BCL-xL/PROTAC/VCB [1, 2]	AlphaLISA signal, BCL-xL/PROTAC/VCB ([1]; compound 0.76 nM)	further results
Cc1ncsc1-c1ccc([C@H](C)NC(=O)[C@@H]2C[C@@H](O)CN2C(=O)[C@@H](NC(=O)CCCCCCC(=O)N2CCN(C[C@@]3(C)CCC(c4ccc(Cl)cc4)=C(CN4CCN(c5ccc(C(=O)NS(=O)(=O)c6ccc(N[C@H](CCN7CCOCC7)CSc7ccccc7)c(S(=O)(=O)C(F)(F)F)c6)cc5)CC4)C3)CC2)C(C)(C)C)cc1 [753a]	27453 and 33756	365306 and 327240	971358 and 937064	1567841 and 1437893	1256006 and 1243530	553159 and 551116	187859 and 162857	42241 and 44787	28218 and 24731		BCL-xL degradation (in words) (BCL-xL; 293T cells, 16 h): could only partially degrade BCL-xL
Cc1ncsc1-c1ccc([C@H](C)NC(=O)[C@@H]2C[C@@H](O)CN2C(=O)[C@@H](NC(=O)CCCCCCC(=O)N2CCN(C[C@]3(C)CCC(c4ccc(Cl)cc4)=C(CN4CCN(c5ccc(C(=O)NS(=O)(=O)c6ccc(N[C@H](CCN7CCOCC7)CSc7ccccc7)c(S(=O)(=O)C(F)(F)F)c6)cc5)CC4)C3)CC2)C(C)(C)C)cc1 [753b]	52786 and 55133	554325 and 621989	1164205 and 1155712	1828094 and 1838568	1687174 and 1602581	724516 and 720957	238805 and 237649	37696 and 47526	26805 and 26614	140034 and 175918	DC50 (BCL-2; 293T cells, 16 h, Fig. 3c, read-out: DC50 in degrading BCL-2): 48 nM; normalized BCL-2 protein content at 1 µM (BCL-2; [3]): 99%; normalized BCL-2 protein content at 1 µM (BCL-2; time point 3): 75%; normalized BCL-2 protein content at 1 µM (BCL-2; time point 6): 54%; normalized BCL-2 protein content at 1 µM (BCL-2; time point 12): 18%; normalized BCL-2 protein content at 1 µM (BCL-2; time point 16): 4%; normalized BCL-2 protein content at 1 µM (BCL-2; time point 24): 3%; normalized BCL-2 protein content at 1 µM (BCL-2; time point 36): 2%; DC50 (BCL-xL; 293T cells, 16 h, Fig. 3c, read-out: DC50 in degrading BCL-xL): 6 nM; normalized BCL-xL protein content at 1 µM (BCL-xL; [3]): 77%; normalized BCL-xL protein content at 1 µM (BCL-xL; time point 3): 55%; normalized BCL-xL protein content at 1 µM (BCL-xL; time point 6): 21%; normalized BCL-xL protein content at 1 µM (BCL-xL; time point 12): 13%; normalized BCL-xL protein content at 1 µM (BCL-xL; time point 16): 12%; normalized BCL-xL protein content at 1 µM (BCL-xL; time point 24): 8%; in vitro ternary complex formation with BCL-xL (in words) ([1]; AlphaLISA, cell-free, Fig. 2c, 3e): stronger ternary complexes with BCL-xL/2 than those by 753a and DT2216
CC1(C)CCC(c2ccc(Cl)cc2)=C(CN2CCN(c3ccc(C(=O)NS(=O)(=O)c4ccc(N[C@H](CCN5CCOCC5)CSc5ccccc5)c(S(=O)(=O)C(F)(F)F)c4)cc3)CC2)C1 [ABT263, navitoclax]	12691 and 9324	28316 and 16721	27882 and 17689		22883 and 13939	12216 and 14015	19424 and 16133	17056 and 15505	14548 and 12360	14711 and 17995	
